ChEMBL document CHEMBL1121545, “Synthesis of potential inhibitors of hypoxanthine-guaine phosphoribosyltransferase for testing as antiprotozoal agents. 2. 1-Substituted hypoxanthines” (1980)
Calls of active or inactive are those of the source. No cut-off for these calls is given here.

Tests used:
[1] = biological target: T1, Hypoxanthine-guanine phosphoribosyltransferase (Homo sapiens) (UniProt P00492); assay: Compound was tested for the inhibition of Hypoxanthine-Guanine Phosphoribosyltransferase (from H.Ep.2 cells); no activity
T1 sequence (whole entry): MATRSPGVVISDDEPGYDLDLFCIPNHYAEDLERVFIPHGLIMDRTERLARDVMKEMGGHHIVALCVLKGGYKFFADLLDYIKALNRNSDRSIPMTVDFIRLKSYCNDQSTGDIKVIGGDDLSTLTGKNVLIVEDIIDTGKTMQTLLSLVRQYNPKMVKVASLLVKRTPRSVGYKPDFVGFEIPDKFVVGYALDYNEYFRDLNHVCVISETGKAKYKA

[2] = species on record: Mus musculus; assay: Compound was tested for ability to extend the life span of Plasmodium berghei infected mice (Mus musculus); no activity; format: functional, organism-based
[3] = test system: Mus musculus; assay: Compound was tested for the effective dose required for the inhibition of Trypanosoma rhodesiense in mice at 106 mg/kg dose in mice; (1 mice survived of 5 treated); format: functional
[4] = test system: Mus musculus; assay: Compound was tested for the effective dose required for the inhibition of Trypanosoma rhodesiense in mice at 212 mg/kg dose in mice; (1 mice survived of 5 treated); format: functional
[5] = test system: Mus musculus; assay: Compound was tested for the effective dose required for the inhibition of Trypanosoma rhodesiense in mice at 424 mg/kg dose in mice; (2 mice survived of 5 treated); format: functional

| SMILES | Activity [1] | Activity [2] | Activity [3] | Survivals [4] | Survivals [5] |
| --- | --- | --- | --- | --- | --- |
| O=[N+]([O-])c1ccc(Cn2cnc3ncnc-3c2O)cc1 | inactive | inactive |  |  |  |
| OCCOc1[nH]cnc2ncnc1-2 | inactive | inactive |  |  |  |
| O=C(Nc1ccc(Cn2cnc3ncnc-3c2O)cc1)c1cccc(S(=O)(=O)F)c1 | inactive | inactive |  |  |  |
| O=C(CBr)Nc1ccc(Cn2cnc3ncnc-3c2O)cc1 | inactive | inactive |  |  |  |
| NCCn1cnc2ncnc-2c1O | inactive | inactive |  |  |  |
| Nc1ccc(Cn2cnc3ncnc-3c2O)cc1 | inactive | inactive |  |  |  |
| Oc1c2ncnc-2ncn1CCCl | inactive | inactive |  |  |  |
| [N-]=[N+]=NCCn1cnc2ncnc-2c1O | inactive | inactive |  |  |  |
| O=C(Nc1ccc(Cn2cnc3ncnc-3c2O)cc1)c1ccc(S(=O)(=O)F)cc1 | inactive | inactive |  |  |  |
| O=C(Nc1ccc(Cn2cnc3ncnc-3c2O)cc1)c1ccc(Cl)cc1 | inactive | inactive |  |  |  |
| O=C(CBr)NCCn1cnc2ncnc-2c1O |  |  | 1 | 1 | 2 |
